Experimental data: ChEMBL document CHEMBL1221213, “Biomimetic synthesis of the IDO inhibitors exiguamine A and B” (Nat Chem Biol, 2008)

Molecular target: Indoleamine 2,3-dioxygenase 1 (Homo sapiens, UniProt P14902)
Assay: Inhibition of human recombinant indoleamine-2,3-dioxygenase

Indoleamine 2,3-dioxygenase 1, sequence (P14902 whole entry): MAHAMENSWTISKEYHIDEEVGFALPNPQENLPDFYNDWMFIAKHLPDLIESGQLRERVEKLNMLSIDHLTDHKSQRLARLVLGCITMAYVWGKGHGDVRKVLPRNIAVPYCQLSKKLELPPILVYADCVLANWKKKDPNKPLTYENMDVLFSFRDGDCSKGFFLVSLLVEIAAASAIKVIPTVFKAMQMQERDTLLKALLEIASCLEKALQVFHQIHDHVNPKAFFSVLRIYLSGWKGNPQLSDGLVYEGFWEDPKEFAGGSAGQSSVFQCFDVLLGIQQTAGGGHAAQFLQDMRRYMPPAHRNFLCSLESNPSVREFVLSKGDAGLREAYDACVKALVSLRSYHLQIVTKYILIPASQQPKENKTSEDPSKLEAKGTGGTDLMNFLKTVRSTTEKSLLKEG

Ki [µM]	SMILES
0.08	CN(C)CCc1ccc(O)c(O)c1C1=C(C2C(=O)N(C)C(=O)N2C)C(=O)c2c(CCN)c[nH]c2C1=O (configuration not stated)
0.08	CN1C(=O)N(C)[C@]2(Oc3c(O)cc4c(c3C3=C2C(=O)c2c(CCN)c[nH]c2C3=O)[C@H](O)C[N+]4(C)C)C1=O [EXIGUAMINE B]
